Data from BindingDB's records for patent US9694002 (Genentech Inc, 2017).

Biological target: Sodium channel protein type 9 subunit alpha (Homo sapiens, UniProt Q15858)
Experiment: Radioligand Binding Assay
Settings: pH 7.4; 25 °C
Protocol: Binding of this radioligand was preformed in 5 mL borosilicate glass test tubes at room temperature. […] Non-specific binding was determined in the presence of 1 uM unlabelled compound. […] [3H]compound bound to filters was quantified by liquid scintillation counting.

Sequence of Sodium channel protein type 9 subunit alpha (Q15858 whole entry): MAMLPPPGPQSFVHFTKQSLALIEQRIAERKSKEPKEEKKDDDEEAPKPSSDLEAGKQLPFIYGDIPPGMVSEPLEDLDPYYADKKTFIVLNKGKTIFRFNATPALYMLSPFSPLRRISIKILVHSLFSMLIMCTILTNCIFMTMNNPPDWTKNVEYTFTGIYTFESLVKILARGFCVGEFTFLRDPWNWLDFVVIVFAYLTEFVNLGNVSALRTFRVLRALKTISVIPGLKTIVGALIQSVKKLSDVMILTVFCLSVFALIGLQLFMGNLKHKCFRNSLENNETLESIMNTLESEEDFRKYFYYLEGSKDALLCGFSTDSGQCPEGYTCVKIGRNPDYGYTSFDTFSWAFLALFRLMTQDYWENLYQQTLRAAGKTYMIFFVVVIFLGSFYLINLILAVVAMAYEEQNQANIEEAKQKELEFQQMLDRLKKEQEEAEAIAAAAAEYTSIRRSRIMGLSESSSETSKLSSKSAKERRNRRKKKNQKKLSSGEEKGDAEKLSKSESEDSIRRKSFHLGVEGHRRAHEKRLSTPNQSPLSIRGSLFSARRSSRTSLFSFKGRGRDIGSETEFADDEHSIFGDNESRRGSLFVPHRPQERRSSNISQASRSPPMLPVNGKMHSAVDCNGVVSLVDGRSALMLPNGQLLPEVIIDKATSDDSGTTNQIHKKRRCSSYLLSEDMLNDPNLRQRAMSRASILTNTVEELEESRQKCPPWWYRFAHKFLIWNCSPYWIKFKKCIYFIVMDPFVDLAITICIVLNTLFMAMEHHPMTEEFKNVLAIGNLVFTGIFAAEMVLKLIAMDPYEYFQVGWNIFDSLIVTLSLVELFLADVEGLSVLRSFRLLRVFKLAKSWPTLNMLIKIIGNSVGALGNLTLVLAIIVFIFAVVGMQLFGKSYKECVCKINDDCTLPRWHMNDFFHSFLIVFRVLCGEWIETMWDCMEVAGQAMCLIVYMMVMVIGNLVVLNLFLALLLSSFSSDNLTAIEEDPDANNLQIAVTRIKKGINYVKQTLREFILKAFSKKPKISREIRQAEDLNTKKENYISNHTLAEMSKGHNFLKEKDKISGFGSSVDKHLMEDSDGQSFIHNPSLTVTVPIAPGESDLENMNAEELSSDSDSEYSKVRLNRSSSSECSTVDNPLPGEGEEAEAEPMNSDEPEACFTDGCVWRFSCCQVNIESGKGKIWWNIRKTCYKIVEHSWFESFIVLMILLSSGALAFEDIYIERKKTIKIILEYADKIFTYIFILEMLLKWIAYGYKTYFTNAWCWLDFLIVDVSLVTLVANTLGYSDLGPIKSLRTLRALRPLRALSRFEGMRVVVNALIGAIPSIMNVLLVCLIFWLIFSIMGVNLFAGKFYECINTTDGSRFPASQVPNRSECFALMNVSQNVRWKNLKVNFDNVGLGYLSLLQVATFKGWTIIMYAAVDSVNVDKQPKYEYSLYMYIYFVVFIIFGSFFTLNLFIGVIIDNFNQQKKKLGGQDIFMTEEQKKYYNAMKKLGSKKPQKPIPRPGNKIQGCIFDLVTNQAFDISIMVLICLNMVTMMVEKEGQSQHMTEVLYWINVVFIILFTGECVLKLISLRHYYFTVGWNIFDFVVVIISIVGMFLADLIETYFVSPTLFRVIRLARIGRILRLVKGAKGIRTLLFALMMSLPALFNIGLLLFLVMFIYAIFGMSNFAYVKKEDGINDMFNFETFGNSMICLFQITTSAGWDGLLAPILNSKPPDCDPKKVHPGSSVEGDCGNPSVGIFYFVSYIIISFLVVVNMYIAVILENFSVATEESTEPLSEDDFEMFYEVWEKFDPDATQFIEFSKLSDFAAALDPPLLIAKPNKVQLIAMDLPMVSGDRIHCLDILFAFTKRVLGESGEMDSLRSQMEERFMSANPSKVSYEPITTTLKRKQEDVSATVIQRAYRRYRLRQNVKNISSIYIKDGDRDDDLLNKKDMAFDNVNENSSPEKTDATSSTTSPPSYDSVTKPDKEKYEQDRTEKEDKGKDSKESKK

Row | SMILES | IC50 [nM]
1 | CS(=O)(=O)NC(=O)c1cc(C2CC2)c(CN2CCC(Oc3ccc(Cl)cc3)CC2)cc1F [US9694002, 503] | 30
2 | O=C(NS(=O)(=O)C1CC1)c1cc(C2CC2)c(CN2CCC(Oc3ccc(Cl)cc3)CC2)cc1F [US9694002, 504] | 16
